The values that follow come from article PMC7793531 (International Journal of Molecular Sciences, 2020).

Starred links: 1 amine or outer side, 2 acyl side, 3 side chain; linkers in the order of their positions; H or OH if unused. Non-standard residues stand in square brackets, D forms with d. Residues, ends and D or L forms follow the SMILES beside them. Groups on a side chain read outwards from the residue. ξ: configuration not given here. *: point of attachment. Oic(3aξ,7aξ) = O=C(O)[C@@H]1CC2CCCCC2N1; X1 = N=C(N)NCCCC[C@H](N)CN*; Dab = NCC[C@H](N)C(=O)O; CO = O=C([*:1])[*:2]

The target of one data set is T1, VEGF-A165/NRP-2 complex (Homo sapiens, UniProt O60462).
T1 construct: purchased R&D Systems
T1 sequence (O60462 23-864 limits assumed): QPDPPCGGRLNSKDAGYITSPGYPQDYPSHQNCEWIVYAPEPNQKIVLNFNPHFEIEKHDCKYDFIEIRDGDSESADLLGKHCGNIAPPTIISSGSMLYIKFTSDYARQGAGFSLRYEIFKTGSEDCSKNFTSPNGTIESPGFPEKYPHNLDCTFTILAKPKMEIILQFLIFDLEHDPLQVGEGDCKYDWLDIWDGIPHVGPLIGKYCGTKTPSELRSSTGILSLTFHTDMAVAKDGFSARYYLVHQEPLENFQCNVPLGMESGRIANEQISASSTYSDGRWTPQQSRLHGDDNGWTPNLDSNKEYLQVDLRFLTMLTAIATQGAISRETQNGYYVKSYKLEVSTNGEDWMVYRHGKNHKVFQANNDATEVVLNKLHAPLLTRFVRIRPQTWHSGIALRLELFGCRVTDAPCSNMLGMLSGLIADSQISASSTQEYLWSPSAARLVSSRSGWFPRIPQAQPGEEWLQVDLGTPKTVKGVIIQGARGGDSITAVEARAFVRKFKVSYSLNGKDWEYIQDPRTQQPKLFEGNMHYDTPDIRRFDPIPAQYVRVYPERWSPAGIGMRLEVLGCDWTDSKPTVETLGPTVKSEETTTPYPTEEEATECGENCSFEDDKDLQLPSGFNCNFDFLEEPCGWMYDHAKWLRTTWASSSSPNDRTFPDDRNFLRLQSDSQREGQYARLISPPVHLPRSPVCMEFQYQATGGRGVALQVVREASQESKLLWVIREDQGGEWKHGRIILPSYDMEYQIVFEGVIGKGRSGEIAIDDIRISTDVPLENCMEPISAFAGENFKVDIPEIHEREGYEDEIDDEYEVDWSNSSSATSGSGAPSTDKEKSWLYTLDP
Kind of data set: Competitive ELISA-like assay, VEGF-A165/NRP-2 complex formation. The format is binding. The settings on record: tested 0.1–10 µM. An excerpt:
Amino acid sequence homology for primary structures of NRP-1 and NRP-2 is 44% [81, 82]. Structural studies have shown that both receptors bind VEGF-A165 using a conserved binding pocket core, formed by the b1 subdomain loops. VEGF-A165 interacts also with VEGF-R1 and R2 receptors by different fragments encoded by exons 1–5 [84, 85]. Affinity studies were done using modified ELISA-like assay, performed in the same manner as affinity tests for NRP-1 after optimization of method for individual protein. […] However, this value is more than two times higher compared to VEGF-A165/NRP-1 complex inhibition.
This method was previously described for NRP-1 [44, 45, 46]. […] Next, 100 µL chemiluminescent substrate was added, and luminescence was quantified using Tecan Infinite F200Pro microplate reader (Männedorf, Switzerland). […] Percentages of inhibition were calculated by the following formula:100% − [[(S − N)/(P − N)]∙100%](1) where S is the signal intensity measured in wells with urea–peptide hybrid. The IC50 of each urea–peptide hybrid was calculated using the nonlinear regression function with GraphPad Prism Version-5.01 (GraphPad Software, San Diego, CA, USA). […]
On the technique in general: In an ELISA, binding on a coated surface is turned into a signal by an enzyme label.

A short description of data set [1]: In vitro enzymatic stability in human blood serum (LC-SWATH-MS). The format is in vitro ADME. The settings on record: human blood serum (pooled from four healthy persons), 37 °C, after 96 h, read-out: compound still intact. As for the experimental part:
Rapid renal clearance and enzymatic degradation are classified as most important disadvantages of peptides as drugs. Covalent linkage to plasma proteins or chemical modifications, including amide bond modifications, might improve their half-lives. We performed proteolytic stability studies in human blood serum to investigate whether the introduction of urea bonds affected the half-lives of compounds from each of synthesized group of hybrids. Compounds 3, 6 and 7 were incubated with human serum at 37 °C. Samples were taken at different time intervals and analyzed using LC-SWATH-MS [88, 89, 90]. […] Hybrids 6 and 7 were stable toward enzymatic degradation, with 50% of each compound still being intact after 96 h (Figure 5). […] Overall, it can be concluded that the substitution of an amide bond with a urea bond has a positive effect on the proteolytic stability of the examined inhibitors.
The study was conducted in full accordance with ethical principles in accordance with the ICH E6 (R2) Guideline for Good Clinical Practice and the Code of Good Customs in Science developed by the Polish Academy of Sciences. Signed consent for using serum was obtained from volunteers. The Rector’s Commission for Ethics of Scientific Research with Human Participation, University of Warsaw, Warsaw, Poland gave the ethical approval (approval number 51/2020). Human blood from four healthy persons was directly drawn into evacuated tubes and left undisturbed at room temperature for 1 h to clot. Tubes were centrifuged at 2500× g for 10 min to prevent possible platelet activation. Serum was pipetted out of the blood collection tubes, pooled and collected in microtubes.
A degradation assay was adapted from a method described previously. Human blood serum was preactivated in Eppendorf ThermoMixer® Comfort (Hamburg, Germany) at 37 °C for 20 min (350 rpm). Next, 20 μL of aqueous urea–peptide hybrid stock solution was added to give ∼750 μg/mL final compound concentration, and incubation was continued. At selected time intervals, 50 μL of the mixture was collected and quenched by adding 200 μL of ACN:H2O:FA mixture (89:10:1, v:v:v). The obtained suspension was vortexed for 1 min (3000 min^−1) and centrifuged for 10 min in 4 °C (11,000× g). 100 μL of supernatant was collected and lyophilized. The samples reconstituted in 1 mL of 10 mM ammonium formate with 0.1% FA were subjected to LC-MS. Relative concentration at time intervals was calculated using peak area of either individual or most intense fragment of compound of interest. Analyst software version 1.7.1 was used for data acquisition, Peak View 2.2 and MultiQuant 2.1 (Sciex, ON) were used for data processing. Detailed analytical data can be found in Supplementary Materials (Figures S17–S45). […]

Consider `N=C(N)NCCCC[C@H](N)CNC(=O)NCC[C@H](N)C(=O)N[C@@H](CCN)C(=O)N1C2CCCCC2C[C@H]1C(=O)N[C@@H](CCCNC(=N)N)C(=O)O` (stereo partly drawn) [Compound 6, H-Dab(hArg^U)Dab-Oic-Arg-OH] (H-[Dab]([CO-X1])[Dab][Oic(3aξ,7aξ)]R-OH), for which the IC50 on VEGF-A165/NRP-2 complex is 480 nM. Moreover, in data set [1], the remaining at 96 h stood at 50%.

Broadly, the IC50 is the concentration that inhibits the measured activity by half. Read a low IC50 as greater potency in that assay.
